Positions count from the first letter of the chain named. A value given as a limit tells only on which side of the number the result lay.

Test [1] has as its target T1, GlyT2 F428A mutant (Homo sapiens, UniProt Q9Y345, F428A).
T1 construct: expressed in transfected cells; host or cells: Xenopus laevis oocytes (cRNA injection)
T1 sequence (Q9Y345 1-797 F428A): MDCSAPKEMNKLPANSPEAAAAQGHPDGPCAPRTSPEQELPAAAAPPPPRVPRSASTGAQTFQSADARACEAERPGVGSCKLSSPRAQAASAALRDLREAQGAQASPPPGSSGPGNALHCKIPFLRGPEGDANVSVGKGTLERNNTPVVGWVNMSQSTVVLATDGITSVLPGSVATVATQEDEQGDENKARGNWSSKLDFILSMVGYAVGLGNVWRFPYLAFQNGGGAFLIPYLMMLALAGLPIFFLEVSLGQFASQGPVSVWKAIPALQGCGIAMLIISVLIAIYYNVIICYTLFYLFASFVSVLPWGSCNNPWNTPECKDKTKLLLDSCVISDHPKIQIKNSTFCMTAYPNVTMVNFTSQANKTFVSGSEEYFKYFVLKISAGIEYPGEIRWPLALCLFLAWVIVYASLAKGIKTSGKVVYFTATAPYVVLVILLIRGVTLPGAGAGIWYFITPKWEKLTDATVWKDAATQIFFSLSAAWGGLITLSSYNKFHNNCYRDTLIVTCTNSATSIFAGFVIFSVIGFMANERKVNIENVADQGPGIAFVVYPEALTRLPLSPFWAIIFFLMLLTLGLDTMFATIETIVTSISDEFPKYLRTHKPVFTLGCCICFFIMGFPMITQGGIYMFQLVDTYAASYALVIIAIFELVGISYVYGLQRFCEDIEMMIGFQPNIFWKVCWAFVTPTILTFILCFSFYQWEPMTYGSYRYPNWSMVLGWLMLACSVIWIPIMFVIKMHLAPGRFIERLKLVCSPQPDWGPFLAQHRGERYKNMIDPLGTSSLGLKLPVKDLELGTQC
The test can be described thus: Glycine transport currents, two electrode voltage clamp, oocytes expressing GlyT2 F428A. Type of test: cell-based. The settings on record: GlyT2 F428A; for % Max. inhibition: mean ± SEM. Here is the method:
(§1) Glycine was first applied to establish maximal transport current.
(§2) Compounds were tested for inhibition of glycine transport on Xenopus laevis oocytes expressing mutant GlyT1 and GlyT2 transporters. n values are in brackets, with measurements taken from at least 2 batches of oocytes.

Test [2] has as its system GlyT1 WT. Also noted: method as in earlier work. Conditions: previously published; cited from earlier work.
Test [3] addresses T2, GlyT2 WT (Homo sapiens, UniProt Q9Y345).
T2 sequence (Q9Y345 1-797): T1 sequence (Q9Y345 1-797 F428A) with A428F
More on the design: expressed in transfected cells; host or cells: Xenopus laevis oocytes (cRNA injection). The settings on record: WT GlyT2, previously published, cited from earlier work; for IC50: mean (95% CI); for GlyT2 % max. inhibition: mean ± SEM.

Test [4] has as its target T3, GlyT2 Y550L mutant (Homo sapiens, UniProt Q9Y345, Y550L).
T3 construct: expressed in transfected cells; host or cells: Xenopus laevis oocytes (cRNA injection)
T3 sequence (Q9Y345 1-797 Y550L): T1 sequence (Q9Y345 1-797 F428A) with A428F, Y550L
The test can be described thus: Glycine transport currents, two electrode voltage clamp, oocytes expressing GlyT2 Y550L. Type of test: cell-based. The settings on record: GlyT2 Y550L; for IC50: greater than maximum concentration applied (footnote a); for % Max. inhibition: mean ± SEM. Here is the method: as §1, §2

In test [5] the target is T4, GlyT2 P561S mutant (Homo sapiens, UniProt Q9Y345, P561S).
T4 construct: expressed in transfected cells; host or cells: Xenopus laevis oocytes (cRNA injection)
T4 sequence (Q9Y345 1-797 P561S): T1 sequence (Q9Y345 1-797 F428A) with A428F, P561S
The test can be described thus: Glycine transport currents, two electrode voltage clamp, oocytes expressing GlyT2 P561S. Type of test: cell-based. Conditions: GlyT2 P561S. Here is the method: as §1, §2

The target in test [6] is T5, GlyT2 W563L mutant (Homo sapiens, UniProt Q9Y345, W563L).
T5 construct: expressed in transfected cells; host or cells: Xenopus laevis oocytes (cRNA injection)
T5 sequence (Q9Y345 1-797 W563L): T1 sequence (Q9Y345 1-797 F428A) with A428F, W563L
The test can be described thus: Glycine transport currents, two electrode voltage clamp, oocytes expressing GlyT2 W563L. The format is cell-based. The settings on record: GlyT2 W563L. Here is the method: as §1, §2

For the compound `CCCCC=CCCCCCCCC(=O)NCC(=O)O` [C14 ω5 Glycine], the IC50 in test [1] is more than 30000 nM; in test [2], more than 10000 nM; in test [3], 9200 nM. Also, the “% Max. inhibition (% inhibition at the highest concentration of inhibitor used)” value in test [1] (footnote b) is listed as 33.4 ± 3.0^b (p=0.0007) %. Besides, in test [3], the “GlyT2 % max. inhibition” value is recorded as 100 ± 7.2%.

Regarding `CCCCCCCCCCC=CCCCC(=O)NCC(=O)O` [C16 ω11 Glycine], the values for the IC50 in test [1] (mean (95% CI)), in test [2] and in test [3] were 4810 nM, more than 10000 nM and 3400 nM, respectively. For the same compound, the “% Max. inhibition” value in test [1] is 103 ± 7.7 (p=0.6075) %. The “GlyT2 % max. inhibition” value in test [3] is 97.9 ± 2.3%.

Turning to `CCCCCCCC=CCCCCCCCCC(=O)NCC(=O)O` [C18 ω8 Glycine], in test [1], the IC50 was more than 10000 nM and the “% Max. inhibition” value is recorded as 13.2 ± 2.7 (p=0.0001) %. In addition, the concentration for half-maximal inhibition (IC50) in test [2] was more than 10000 nM. In addition, in test [3], the IC50 was 320 nM and the “GlyT2 % max. inhibition” value is 61.3 ± 1.7%.

For `CCCCCCCCCC=CCCCCCCC(=O)NCC(=O)O` [C18 ω10 Glycine], the IC50 in test [1] (mean (95% CI)) is 776 nM; in test [2], more than 10000 nM; in test [3], 340 nM. For the same compound, the “% Max. inhibition” value in test [1] is 25.3 ± 5.3 (p=0.0092) %. Further, the “GlyT2 % max. inhibition” value in test [3] is 52.4 ± 2.2%.

Take `CCCCCCCC/C=C\CCCCCCCC(=O)N[C@@H](CCCNC(=N)N)C(=O)O` [oleoyl l-Arginine]: the IC50 in test [2] is more than 3000 nM; in test [4], more than 3000 nM; in test [3], 47.9 nM. Also, the “% Max. inhibition” value in test [4] is listed as 9.3 ± 1.4 (p=0.0001) %. The “GlyT2 % max. inhibition” value in test [3] is 87.2 ± 3.7%.

With `CCCCCCCC/C=C\CCCCCCCC(=O)N[C@@H](CC(C)C)C(=O)O` [oleoyl l-Leucine], the IC50 in test [2] was more than 10000 nM. For the same compound, the “% Max. inhibition” value in test [4] is recorded as 41.1 ± 6.2 (p=0.0115) %. In addition, in test [3], the “GlyT2 % max. inhibition” value is given as 72.2 ± 3.8%.

With `CCCCCCCC/C=C\CCCCCCCC(=O)N[C@@H](CO)C(=O)O` [oleoyl l-Serine], the IC50 in test [5] (mean (95% CI)) was 580 nM; in test [2], more than 3000 nM; in test [4], more than 3000 nM; in test [6] (mean (95% CI)) it was 661 nM. Besides, the “% Max. inhibition” value was 80.3 ± 7.3 (p=0.7241) % in test [5] (mean ± SEM), 11.2 ± 1.6 (p=0.0001) % in test [4] and 62.3 ± 5.3 (p=0.3662) % in test [6] (mean ± SEM). For the same compound, the “GlyT2 % max. inhibition” value in test [3] was 73.1 ± 5.1%.
